Patent US11433087B2, “Anti-tumor compound with high CD169 affinity, method thereof, and use thereof” (Xiamen Nuokangde Biological Technology Co., Ltd., priority 2017, dated 2022)

Assays:
[1] = test system: human malignant glioma cells (U87); experiment: Toxicity in cells (counting dead cells, cell survival rate); format: cell-based; settings: U87, different concentrations 0-100 μmol, 24 hours; FIG. 4
Procedure: Culturing human malignant glioma cells (U87) in the constant temperature incubator containing 5% CO2 at 37° C., and a seventh medium of the human malignant glioma cells is DMEM containing 10% fetal bovine serum;
Transferring the human malignant glioma cells to a confocal cell culture dish, culturing to a density of 50%, removing the seventh medium, adding an eighth medium comprising TCC-Neu5Ac of different concentrations from 0 to 100 μmol (100 μM), and further culturing for 24 hours; and
Removing the eighth medium comprising TCC-Neu5Ac, washing carefully with PBS for three times, adding a ninth medium, and counting dead cells of the human malignant glioma cells.
Counting results of the dead cells are shown in FIG. 4, wherein abscissa represents different concentrations of TCC Neu5Ac in the eight medium, and ordinate represents a cell survival rate of the human malignant glioma cells. […] Therefore, the anti-tumor compound with high CD169 affinity of the present disclosure has extremely low toxicity in the cells and has potential ability for human tumor treatment.

B16F10 cells [2] = experiment: Tumor metastasis analysis model in mice; format: in vivo, B6 mice (C57BL/6); settings: B16F10 injected from tail veins in C57BL/6 mice; 200 μL, 100 μmol, tail vein every two days, 15 days; versus 100 μmol natural sialic acid (Neu5Ac); FIG. 14
Procedure: (§1) Culturing B16F10 cells in a 10 cm cell culture dish to a density of 80%, digesting with 2 mL tyrisin for 90 seconds, neutralizing with 2 mL medium, centrifuging under 300 g for 3 minutes, rinsing with PBS repeatedly, centrifuging once to remove any residual medium, and adding PBS to resuspend and count an amount of the B16F10 cells.
Injecting 1 million of the B16F10 cells into B6 mice (C57BL/6) from tail veins for preparing a tumor metastasis analysis model. Then, injecting 200 μL of an aqueous solution comprising the 100 μmol of the anti-tumor compound with high CD169 affinity of the present disclosure every two days from tail veins as an experimental group 3, and injecting water solution with the same volume comprising 100 μmol of natural sialic acid (Neu5Ac) as a control group 3. After 15 days, removing hair from tumor areas of the B6 mice and taking pictures. Then, taking out tumors from the B6 mice and taking pictures for analysis. An ordinate position of a black solid circle indicates a number of the tumors transferred to lungs of a mouse of the experimental group 3. An ordinate position of one black solid square indicates a number of the tumors transferred to lungs of a mouse of the control group 3. It can be seen from FIG. 14 that the number of the tumors transferred to the lungs in the experimental group 3 is far lower than that in the control group 3. […]

B16F10 cells [3] = experiment: Anti-tumor effects in tumor-bearing mice injected with the compound; format: in vivo, mice B6 (C57BL/6); settings: subcutaneous B16F10 in C57BL/6 mice; tail vein injection of 100 mL PBS, 100 μmol, every two days, 15 days; versus 100 μmol natural sialic acid; FIG. 6-9
Procedure: Culturing B16F10 cells in a 10 cm cell culture dish to a density of 80%;
Digesting with 2 mL tyrisin for 90 seconds, neutralizing with 2 mL medium, centrifuging under 300 g for 3 minutes, rinsing with PBS repeatedly, centrifuging once to remove any remaining medium, and adding PBS to resuspend and count an amount of the B16F10 cells;
Injecting subcutaneously 1 million of the B16F10 cells into mice B6 (C57BL/6) for tumor planting, and then injecting […] PBS comprising the anti-tumor compound of the present disclosure with a concentration of 100 μmol from a tail vein of mice every two days as an experimental group 1;
Injecting PBS of the same volume comprising 100 μmol natural sialic acid as a control group 1, and the other conditions of the control group 1 are the same as the experimental group 1; and
After 15 days, removing hair from tumor areas of the mice, taking pictures (as shown in FIG. 6 and FIG. 7), taking out tumors from the mice, and taking pictures for analysis.

B16F10 cells [4] = experiment: Anti-tumor effects in tumor-bearing mice orally administrated with the compound; format: in vivo, B6 mice (C57BL/6); settings: subcutaneous B16F10 in C57BL/6 mice; oral 200 μL aqueous solution, 100 μmol, daily, 15 days; versus natural sialic acid; FIG. 10-13
Procedure: as §1, with “medium,” for “medium, and”, “cells, and injecting subcutaneously 1 million of the B16F10 cells into the of B6 mice (C57BL/6) for tumor planting;” for “cells.”
Feeding 200 μL of an aqueous solution comprising the 100 μmol of the anti-tumor compound with high CD169 affinity of the present disclosure daily as an experimental group 2;
Feeding water solution with the same volume comprising natural sialic acid as a control group 2; and
After 15 days, removing hair from tumor areas of the B6 mice, taking pictures, taking out tumors from the B6 mice, and taking pictures for analysis.

B16F10 cells [5] = experiment: Phagocytic effects of macrophages (BMDM) on tumor cells, lactate dehydrogenase cytotoxicity test kit; format: cell-based, mouse; settings: BMDM and B16F10 cells 5:1; compared with control group medium added with Neu5Ac; FIG. 5
Procedure: Taking out bone marrow of 10 week old mice, adding with a solution of potassium ammonium chloride (ACK), and then culturing cells of the bone marrow in an Iscove's modified dulbecco medium (IMDM) comprising 10% (volume ratio) fetal bovine serum (FBS) and 10 ng/mL macrophage […] stimulating factor to obtain bone marrow derived macrophages (BMDM). Culturing BMDM and B16F10 cells of a ratio of 5:1 respectively in an experimental group medium and a control group medium. Adding TCC-Neu5Ac to the experimental group medium, adding Neu5Ac of the same volume to the control group medium, detecting by Lactate dehydrogenase cytotoxicity test kit, selecting a 490 nm absorption peak in a microplate reader, and converting to phagocytic killing efficiency.

CC(=O)N[C@@H]1C(O)C[C@](O)(C(=O)O)OC1C(O)C(O)CNC(=O)c1cc2c(s1)-c1ccccc1OC2 (some centres unmarked) [TCC-Neu5Ac, 9-benzopyranothiophene-n-acetylneuraminic acid monosaccharide]
cell survival rate of the human malignant glioma cells [1]: does not differ much | number of the tumors transferred to the lungs (B16F10 cells [2]): far lower | sizes of the tumors (B16F10 cells [3]): significantly smaller | sizes of the tumors (B16F10 cells [4]): significantly smaller | killing rate of phagocytes to tumors (B16F10 cells [5]): significantly higher
